From ChEMBL document CHEMBL6109079, “Discovery of novel pyrimidinetrione derivatives as DprE1 inhibitors with potent antimycobacterial activities” (Eur J Med Chem, 2025)
In brackets after ≈: the same amount, converted by molar mass. Activity calls are given as the source filed them. The calls are words filed in the database; no cut-off is given here.

What was measured:
[1] = Inhibition of DprE1 (unknown origin) preincubated with FAD followed by compound addition and measured after 2 mins by fluorescence based microplate reader; parameters: species or system Bacteria
[2] = Binding affinity to recombinant DprE1 (unknown origin) assessed as dissociation constant incubated for 10 mins by MST analysis; parameters: species or system Bacteria
[3] = system: Mycobacterium tuberculosis; assay: Antibacterial activity against Mycobacterium tuberculosis H37Ra assessed as inhibition of bacterial growth at 10 uM incubated for 3 weeks by absorbance based microplate reader relative to control; assay type: functional; conditions: 504 h
[4] = system: Mycobacterium tuberculosis; assay: Antibacterial activity against Mycobacterium tuberculosis H37Ra assessed as inhibition of bacterial growth at 50 uM incubated for 3 weeks by absorbance based microplate reader relative to control; assay type: functional; conditions: 504 h
[5] = Selectivity index, ratio of CC50 for cytotoxicity against human THP-1 cells to MIC50 for antibacterial activity against Mycobacterium tuberculosis H37Ra; assay type: toxicity, cell-based; conditions: read-out: Selectivity Index
[6] = system: Mycobacterium tuberculosis; assay: Antibacterial activity against Mycobacterium tuberculosis H37Rv infected in PMA-differentiated human THP-1 cells assessed as reduction in colony forming units at 100 uM measured after 3 weeks by absorbance based assay; assay type: functional, organism-based
[7] = system: Mycobacterium tuberculosis; assay: Antibacterial activity against Mycobacterium tuberculosis H37Ra infected in PMA-differentiated human THP-1 cells assessed as reduction in colony forming units measured after 3 weeks by absorbance based assay; assay type: functional, organism-based; conditions: dose 10-100 µM
[8] = system: Mycobacterium tuberculosis; assay: Antibacterial activity against Mycobacterium tuberculosis H37Ra assessed as inhibition of bacterial growth incubated for 1 weeks by absorbance based microplate reader; assay type: functional; conditions: 168 h
[9] = Cytotoxicity against human THP-1 cells assessed as cell viability at 200 uM incubated for 24 hrs by CCK-8 assay relative to control; assay type: toxicity, cell-based; conditions: read-out: Activity
[10] = Cytotoxicity against human THP-1 cells assessed as reduction in cell viability incubated for 24 hrs by CCK-8 assay; assay type: toxicity, cell-based
[11] = system: Mycobacterium tuberculosis; assay: Antibacterial activity against Mycobacterium tuberculosis H37Rv assessed as inhibition of bacterial growth at 10 uM incubated for 3 weeks by absorbance based microplate reader relative to control; assay type: functional; conditions: 504 h

With `O=C(Cc1ccccc1)NN/C=C1\C(=O)NC(=O)N(Cc2ccccc2)C1=O` the IC50 [1] was 12.3 µM.
`O=C1NC(=O)N(Cc2ccccc2)C(=O)/C1=C/NNC(=O)c1cccc(O)c1` gave an IC50 [1] of 6.49 µM.
For `C#CCN1C(=O)NC(=O)/C(=C\NNC(=O)c2ccncc2)C1=O`, the Kd [2] was 0.068 µM, the inhibition at 10 µM [3] was 100% and the inhibition at 50 µM [4] was 100%. For the same molecule, the selectivity ratio [5] was > 187, the Activity [6] was “Active” and the Activity [7] was “Dose-dependent-effect; Best Bactericidal Effect Observed”. The MIC50 [8] was 1.07 µM (≈ 0.336 µg/mL), the viability at 24 h, 200 µM [9] was 100% and the IC50 [1] was 12.7 µM. The CC50 at 24 h [10] was > 200 µM and the inhibition at 10 µM [11] was 100%.
Work on `Nc1cccc(C(=O)NN/C=C2\C(=O)NC(=O)N(Cc3ccccc3)C2=O)c1` yielded an IC50 [1] of 4.36 µM.
For `CN1C(=O)NC(=O)/C(=C\NNC(=O)c2ccncc2)C1=O`, the inhibition at 10 µM [3] was 100%, the inhibition at 50 µM [4] was 100% and the selectivity ratio [5] was > 143. It also gave an MIC50 [8] of 1.4 µM (≈ 0.405 µg/mL), a viability at 24 h, 200 µM [9] of 100% and an IC50 [1] of 50 µM. The CC50 at 24 h [10] was > 200 µM and the inhibition at 10 µM [11] was 100%.
`O=C1NC(=O)N(Cc2ccccc2)C(=O)/C1=C/NNC(=O)c1cccc2ccccc12` gave an IC50 [1] of 23.3 µM.
`C=CCN1C(=O)NC(=O)/C(=C\NNC(=O)c2ccnc3ccccc23)C1=O` gave an IC50 [1] of 12.8 µM.
For `CC(C)N1C(=O)NC(=O)/C(=C\NNC(=O)c2ccncc2)C1=O`, the inhibition at 10 µM [3] was 100%, the inhibition at 50 µM [4] was 100% and the selectivity ratio [5] was > 114. It also gave an MIC50 [8] of 1.75 µM (≈ 0.555 µg/mL), a viability at 24 h, 200 µM [9] of 100% and an IC50 [1] of 47.4 µM. For the same molecule, the CC50 at 24 h [10] was > 200 µM and the inhibition at 10 µM [11] was 100%.
For `CC[C@@H](C)N1C(=O)NC(=O)/C(=C\NNC(=O)c2ccccc2)C1=O`, the IC50 [1] was 13.4 µM.
For `O=C1NC(=O)N(Cc2ccccc2)C(=O)/C1=C/NNC(=O)c1cccc(Cl)c1`, the IC50 [1] was 24.3 µM.
`O=C1NC(=O)N(C2CC2)C(=O)/C1=C/NNC(=O)c1cccc2ncccc12` gave an IC50 [1] of 15.2 µM.
With `COc1ccc(C(=O)NN/C=C2\C(=O)NC(=O)N(Cc3ccccc3)C2=O)cc1` the IC50 [1] was 3.03 µM.
For `O=C(CCl)NN/C=C1\C(=O)NC(=O)N(Cc2ccccc2)C1=O`, the IC50 [1] was > 100 µM.
With `O=C1NC(=O)N(Cc2ccccc2)C(=O)/C1=C/NNC(=O)c1ccc2ccccc2c1` the IC50 [1] was 10.8 µM.
With `O=C1NC(=O)N(Cc2ccccc2)C(=O)/C1=C/NNC(=O)c1ccc(O)cc1` the IC50 [1] was 8.56 µM.
In the case of `O=C1NC(=O)N(Cc2ccccc2)C(=O)/C1=C/NNC(=O)c1ccccc1`, the IC50 [1] is reported as 7.25 µM.
With `CCOCC(=O)NN/C=C1\C(=O)NC(=O)N(Cc2ccccc2)C1=O` the IC50 [1] was > 100 µM.
With `CC(=O)NC[C@H]1CN(c2ccc(N3CCOCC3)c(F)c2)C(=O)O1` [LINEZOLID] the selectivity ratio [5] was > 120 and the MIC50 [8] was 1.67 µM (≈ 0.563 µg/mL).
Molecule `O=C1NC(=O)N(CCO)C(=O)/C1=C/NNC(=O)c1ccncc1` has a Kd [2] of 0.135 µM, an inhibition at 10 µM [3] of 100% and an inhibition at 50 µM [4] of 100%. For the same molecule, the selectivity ratio [5] was > 166, the Activity [7] was “Dose-dependent-effect” and the MIC50 [8] was 1.2 µM (≈ 0.384 µg/mL). For the same molecule, the viability at 24 h, 200 µM [9] was 100%, the IC50 [1] was 45.7 µM and the CC50 at 24 h [10] was > 200 µM. For the same molecule, the inhibition at 10 µM [11] was 100%.
For `O=C1NC(=O)N(C2CCC2)C(=O)/C1=C/NNC(=O)c1ccncc1`, the inhibition at 10 µM [3] was 100%, the inhibition at 50 µM [4] was 100% and the selectivity ratio [5] was > 84.2. For the same molecule, the MIC50 [8] was 2.37 µM (≈ 0.782 µg/mL), the viability at 24 h, 200 µM [9] was 100% and the IC50 [1] was 18.1 µM. The CC50 at 24 h [10] was > 200 µM and the inhibition at 10 µM [11] was 100%.
In the case of `CC(=O)NN/C=C1\C(=O)NC(=O)N(Cc2ccccc2)C1=O`, the IC50 [1] is reported as > 100 µM.
For `CC(=O)Nc1cccc(C(=O)NN/C=C2\C(=O)NC(=O)N(Cc3ccccc3)C2=O)c1`, the IC50 [1] was 20.7 µM.
Work on `O=C1NC(=O)N(Cc2ccccc2)C(=O)/C1=C/NNC(=O)c1ccnc2ccccc12` yielded an IC50 [1] of 13.8 µM.
